Measured values as given in BindingDB's records for doi:10.1016/s0960-894x(03)00254-3 (Merck Research Laboratories, 2003).

Key:
[1] = Ability to bind to the alpha IIb beta-3 integrin expressed as inhibitory concentration against ADP-stimulated aggregation of human gel-filtered platelets
[2] = Ability to bind to the […] integrin expressed as inhibitory concentration against ADP-stimulated aggregation of human gel-filtered platelets

IC50 [1]	IC50 [2]	SMILES
> 3000 nM		O=C(O)C[C@H](NC(=O)CN1CCCC(CCc2ccc3c(n2)NCCC3)C1=O)c1cccnc1 (stereo partly drawn) [3-(2-{2-Oxo-3-[2-(5,6,7,8-tetrahydro-[1,8]naphthyridin-2-yl)-ethyl]-piperidin-1-yl}-acetylamino)-3-(S)-pyridin-3-yl-propionic acid]
> 3000 nM		O=C(O)C[C@H](NC(=O)Cn1cccc(NCc2ccc3c(n2)NCCC3)c1=O)c1cccnc1 [3-(2-{2-Oxo-3-[(5,6,7,8-tetrahydro-[1,8]naphthyridin-2-ylmethyl)-amino]-2H-pyridin-1-yl}-acetylamino)-3-(S)-pyridin-3-yl-propionic acid]
> 3000 nM		CCCc1ccc(NCc2ccc3c(n2)NCCC3)c(=O)n1CC(=O)N[C@@H](CC(=O)O)c1cccnc1 [3-(2-{2-Oxo-6-propyl-3-[(5,6,7,8-tetrahydro-[1,8]naphthyridin-2-ylmethyl)-amino]-2H-pyridin-1-yl}-acetylamino)-3-(S)-pyridin-3-yl-propionic acid]
> 3000 nM		O=C(O)C[C@H](NC(=O)Cn1c(C2CC2)ccc(NCc2ccc3c(n2)NCCC3)c1=O)c1cccnc1 [3-(2-{6-Cyclopropyl-2-oxo-3-[(5,6,7,8-tetrahydro-[1,8]naphthyridin-2-ylmethyl)-amino]-2H-pyridin-1-yl}-acetylamino)-3-(S)-pyridin-3-yl-propionic acid]
> 3000 nM		Cc1cnc(NCc2ccc3c(n2)NCCC3)c(=O)n1CC(=O)N[C@@H](CC(=O)O)c1cccnc1 [3-(2-{6-Methyl-2-oxo-3-[(5,6,7,8-tetrahydro-[1,8]naphthyridin-2-ylmethyl)-amino]-2H-pyrazin-1-yl}-acetylamino)-3-(S)-pyridin-3-yl-propionic acid]
> 3000 nM		Cc1ccc(NCc2ccc3c(n2)NCCC3)c(=O)n1CC(=O)N[C@@H](CC(=O)O)c1cccnc1 [3-(2-{6-Methyl-2-oxo-3-[(5,6,7,8-tetrahydro-[1,8]naphthyridin-2-ylmethyl)-amino]-2H-pyridin-1-yl}-acetylamino)-3-(S)-pyridin-3-yl-propionic acid]
	> 3000 nM	O=C(O)C[C@H](NC(=O)CN1CC[C@H](CCc2ccc3c(n2)NCCC3)C1=O)c1cccnc1 [3-(2-{(S)-2-Oxo-3-[2-(5,6,7,8-tetrahydro-[1,8]naphthyridin-2-yl)-ethyl]-pyrrolidin-1-yl}-acetylamino)-3-(S)-pyridin-3-yl-propionic acid]
	> 3000 nM	O=C(O)C[C@H](NC(=O)Cc1cccc(CCc2ccc3c(n2)NCCC3)c1)c1cccnc1 [3-(S)-Pyridin-3-yl-3-(2-{3-[2-(5,6,7,8-tetrahydro-[1,8]naphthyridin-2-yl)-ethyl]-phenyl}-acetylamino)-propionic acid]
	> 3000 nM	O=C(O)C[C@H](NC(=O)Cn1c(-c2ccccc2)c(Cl)nc(NCc2ccc3c(n2)NCCC3)c1=O)c1cccc(F)c1 [(S)-3-(2-{5-Chloro-2-oxo-6-phenyl-3-[(5,6,7,8-tetrahydro-[1,8]naphthyridin-2-ylmethyl)-amino]-2H-pyrazin-1-yl}-acetylamino)-3-(3-fluoro-phenyl)-propionic acid]
	> 3000 nM	O=C(O)C[C@H](NC(=O)Cn1c(C2CC2)c(Cl)nc(NCc2ccc3c(n2)NCCC3)c1=O)c1ccc2c(c1)OCC2 [(S)-3-(2-{5-Chloro-6-cyclopropyl-2-oxo-3-[(5,6,7,8-tetrahydro-[1,8]naphthyridin-2-ylmethyl)-amino]-2H-pyrazin-1-yl}-acetylamino)-3-(2,3-dihydro-benzofuran-6-yl)-propionic acid]
	> 3000 nM	O=C(O)C[C@H](NC(=O)Cn1c(C2CC2)c(Cl)nc(NCc2ccc3c(n2)NCCC3)c1=O)c1cccc(F)c1 [(S)-3-(2-{5-Chloro-6-cyclopropyl-2-oxo-3-[(5,6,7,8-tetrahydro-[1,8]naphthyridin-2-ylmethyl)-amino]-2H-pyrazin-1-yl}-acetylamino)-3-(3-fluoro-phenyl)-propionic acid]
	> 3000 nM	O=C(O)C[C@H](NC(=O)Cn1c(C2CC2)c(Cl)nc(NCc2ccc3c(n2)NCCC3)c1=O)c1cccnc1 [(S)-3-(2-{5-Chloro-6-cyclopropyl-2-oxo-3-[(5,6,7,8-tetrahydro-[1,8]naphthyridin-2-ylmethyl)-amino]-2H-pyrazin-1-yl}-acetylamino)-3-pyridin-3-yl-propionic acid]
	> 3000 nM	O=C(O)C[C@H](NC(=O)Cn1c(C2CC2)c(Cl)nc(NCc2ccc3c(n2)NCCC3)c1=O)c1cnc2ccccc2c1 [(S)-3-(2-{5-Chloro-6-cyclopropyl-2-oxo-3-[(5,6,7,8-tetrahydro-[1,8]naphthyridin-2-ylmethyl)-amino]-2H-pyrazin-1-yl}-acetylamino)-3-quinolin-3-yl-propionic acid]
	> 3000 nM	CCc1c(Cl)nc(NCc2ccc3c(n2)NCCC3)c(=O)n1CC(=O)N[C@@H](CC(=O)O)c1cccc(F)c1 [(S)-3-(2-{5-Chloro-6-ethyl-2-oxo-3-[(5,6,7,8-tetrahydro-[1,8]naphthyridin-2-ylmethyl)-amino]-2H-pyrazin-1-yl}-acetylamino)-3-(3-fluoro-phenyl)-propionic acid]
	> 3000 nM	Cc1c(Cl)nc(NCc2ccc3c(n2)NCCC3)c(=O)n1CC(=O)N[C@@H](CC(=O)O)c1cccc(F)c1 [(S)-3-(2-{5-Chloro-6-methyl-2-oxo-3-[(5,6,7,8-tetrahydro-[1,8]naphthyridin-2-ylmethyl)-amino]-2H-pyrazin-1-yl}-acetylamino)-3-(3-fluoro-phenyl)-propionic acid]
	> 3000 nM	O=C(O)C[C@H](NC(=O)Cn1c(C2CC2)cnc(NCc2ccc3c(n2)NCCC3)c1=O)c1cccc(F)c1 [(S)-3-(2-{6-Cyclopropyl-2-oxo-3-[(5,6,7,8-tetrahydro-[1,8]naphthyridin-2-ylmethyl)-amino]-2H-pyrazin-1-yl}-acetylamino)-3-(3-fluoro-phenyl)-propionic acid]
	> 3000 nM	O=C(O)C[C@H](NC(=O)Cn1c(C2CC2)cnc(NCc2ccc3c(n2)NCCC3)c1=O)c1cccnc1 [(S)-3-(2-{6-Cyclopropyl-2-oxo-3-[(5,6,7,8-tetrahydro-[1,8]naphthyridin-2-ylmethyl)-amino]-2H-pyrazin-1-yl}-acetylamino)-3-pyridin-3-yl-propionic acid]
> 3000 nM		O=C(O)C[C@H](NC(=O)Cn1c(C2CC2)ccc(NCc2ccc3c(n2)NCCC3)c1=O)c1ccc2c(c1)OCC2 [(S)-3-(2-{6-Cyclopropyl-2-oxo-3-[(5,6,7,8-tetrahydro-[1,8]naphthyridin-2-ylmethyl)-amino]-2H-pyridin-1-yl}-acetylamino)-3-(2,3-dihydro-benzofuran-6-yl)-propionic acid]
> 3000 nM		O=C(O)C[C@H](NC(=O)Cn1c(C2CC2)ccc(NCc2ccc3c(n2)NCCC3)c1=O)c1cccc(F)c1 [(S)-3-(2-{6-Cyclopropyl-2-oxo-3-[(5,6,7,8-tetrahydro-[1,8]naphthyridin-2-ylmethyl)-amino]-2H-pyridin-1-yl}-acetylamino)-3-(3-fluoro-phenyl)-propionic acid]
> 3000 nM		C#C[C@H](CC(=O)O)NC(=O)Cn1c(C2CC2)ccc(NCc2ccc3c(n2)NCCC3)c1=O [(S)-3-(2-{6-Cyclopropyl-2-oxo-3-[(5,6,7,8-tetrahydro-[1,8]naphthyridin-2-ylmethyl)-amino]-2H-pyridin-1-yl}-acetylamino)-pent-4-ynoic acid]
	> 3000 nM	CCc1cnc(NCc2ccc3c(n2)NCCC3)c(=O)n1CC(=O)N[C@@H](CC(=O)O)c1cccc(F)c1 [(S)-3-(2-{6-Ethyl-2-oxo-3-[(5,6,7,8-tetrahydro-[1,8]naphthyridin-2-ylmethyl)-amino]-2H-pyrazin-1-yl}-acetylamino)-3-(3-fluoro-phenyl)-propionic acid]
	> 3000 nM	Cc1cnc(NCc2ccc3c(n2)NCCC3)c(=O)n1CC(=O)N[C@@H](CC(=O)O)c1cccc(F)c1 [(S)-3-(3-Fluoro-phenyl)-3-(2-{6-methyl-2-oxo-3-[(5,6,7,8-tetrahydro-[1,8]naphthyridin-2-ylmethyl)-amino]-2H-pyrazin-1-yl}-acetylamino)-propionic acid]
	> 3000 nM	O=C(O)C[C@H](NC(=O)Cn1c(C2CC2)cnc(NCc2ccc3c(n2)NCCC3)c1=O)c1ccc2c(c1)OCO2 [(S)-3-Benzo[1,3]dioxol-5-yl-3-(2-{6-cyclopropyl-2-oxo-3-[(5,6,7,8-tetrahydro-[1,8]naphthyridin-2-ylmethyl)-amino]-2H-pyrazin-1-yl}-acetylamino)-propionic acid]
	> 3000 nM	O=C(O)C[C@H](NC(=O)CNC(=O)CCCc1ccc2c(n1)NCCC2)c1cccnc1 [(S)-3-Pyridin-3-yl-3-[2-(4-5,6,7,8-tetrahydro-[1,8]naphthyridin-2-yl-butyrylamino)-acetylamino]-propionic acid]
